Common to all, as to type: cell-based
For experiment [1], the system named is colorectal cancer cell line HT-29 cells. Briefly: Growth inhibitory effect against cancer cell lines (3H-thymidine uptake), HT-29. Particulars: Homo sapiens, HT-29, inhibition of 3H-thymidine uptake; test substance 18 hrs, then 3H-thymidine 6 hrs; triplicate. The method, boiled down: (§1)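 IC50 = concentration reducing ^3H-thymidine incorporation to 50% of DMSO control, measured in triplicate. Compound added 24 hrs after plating (1.0×10^4 cells/well); label (0.25 μCi/well) given after 18 hrs of treatment, followed by 6 hrs further culture and scintillation counting of harvested cells.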

Experiment [2] relates to Renal cancer cell line ACHN cell. In words: Growth inhibitory effect against cancer cell lines (3H-thymidine uptake), ACHN. Particulars: Homo sapiens, ACHN. In a few lines: as §1
The next experiment relates to p27 protein. Briefly: p27 protein induction test (Western blotting). To be noted: test substance (0.1 1M), 24 hrs, ACHN cells or HT-29 cells, compared to DMSO, n=2. The protocol: ACHN cells or HT-29 cells were cultured in a 6 well plate at 2.5×10^5 cells/1.8 mL/well for 24 hrs, a test substance ([…]) dissolved in DMSO was added. After 24 hrs, cells were detached using trypsin-EDTA (ethylene diamine tetraacetic acid) and solubilized with NuPAGE LDS sample buffer (Invitrogen). Using an RC DC protein assay kit (BIO-RAD), the protein concentration of the sample was quantitated, and a sample in an amount corresponding to 10 μg of BSA (bovine serum albumin) was analyzed by Western blotting using an anti-p27 antibody. The density of the band stained with the anti-p27 antibody was measured by a densitometer to quantify the amount of p27 protein. As a control, DMSO was used and the test was performed with n=2 and the average protein amount was determined.
(In general: Immunoblotting shows a protein as a band on a membrane.)

For the next experiment, the system named is p15 protein. In words: Evaluation of p15 induction activity (Western blotting). To be noted: test substance 0.1 μM, 24 hrs, ACHN cells or HT-29 cells, compared to DMSO, n=2. The method, boiled down: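 p15 protein quantified by densitometry of anti-p15 Western blots (10 μg protein per lane, mean of n=2). Samples came from HT-29 or ACHN cells given 0.1 μM compound for 24 h after 24 h plating, with DMSO as control.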

Consider `C#Cc1ccc(Nc2cc(=O)n(C)c3c2c(=O)n(C2CC2)c(=O)n3-c2cccc(NS(=O)(=O)CC)c2)c(F)c1` [Example 1-289], for which the IC50 in experiment [1] and in experiment [2] was under 0.01 µM each time. For the same compound, the fold induction at 0.1 µM in the experiment with p27 protein and with p15 protein was at least 1.5 throughout.
With `C#Cc1ccc(Nc2cc(=O)n(C)c3c2c(=O)n(C2CC2)c(=O)n3-c2cccc(NS(C)(=O)=O)c2)cc1` [Example 1-290], the IC50 was under 0.01 µM in experiment [1] and 0.01 to 0.1 µM in experiment [2]. The fold induction at 0.1 µM in the experiment on p27 protein and in the experiment with p15 protein was at least 1.5 in each case.
Regarding `Cn1c(=O)cc(Nc2ccc(CCF)cc2)c2c(=O)n(C3CC3)c(=O)n(-c3ccccc3)c21` [Example 1-293], the IC50 in experiment [1] and in experiment [2] was 0.1 to 1 µM each time. The fold induction at 0.1 µM in the experiment with p27 protein and in the experiment on p15 protein was at least 1.5 in each case.
`CCNS(=O)(=O)c1cccc(-n2c(=O)n(C3CC3)c(=O)c3c(Nc4ccc(Br)cc4F)cc(=O)n(C)c32)c1` [Example 1-295]: the IC50 in experiment [1] fell in the range of 0.01 to 0.1 µM; in experiment [2], 0.1 to 1 µM. Also, the fold induction at 0.1 µM with p27 protein and with p15 protein was at least 1.5 in each case.
Regarding `CCc1ccc(Nc2cc(=O)n(C)c3c2c(=O)n(C2CC2)c(=O)n3-c2cccc(NC(C)=O)c2)c(F)c1` [Example 1-296], the IC50 in experiment [1] was under 0.01 µM; in experiment [2], 0.1 to 1 µM. Also, the fold induction at 0.1 µM in the experiment on p27 protein and with p15 protein was at least 1.5 throughout.
In the case of `CC(=O)Nc1cccc(-n2c(=O)n(C3CC3)c(=O)c3c(Nc4ccc(I)cc4F)cc(=O)n(C)c32)c1` [Example 1-297], the figures for the IC50 in experiment [1] and in experiment [2] were under 0.01 µM and 0.01 to 0.1 µM, respectively. The fold induction at 0.1 µM in the experiment on p27 protein and in the experiment with p15 protein was at least 1.5 in each case.
Take `C#Cc1ccc(Nc2cc(=O)n(C)c3c2c(=O)n(C2CC2)c(=O)n3-c2cccc(NS(=O)(=O)CC)c2)cc1` [Example 1-298]: the results for the IC50 in experiment [1] and in experiment [2] were under 0.01 µM and 0.01 to 0.1 µM, respectively. Besides, the fold induction at 0.1 µM in the experiment on p27 protein and in the experiment on p15 protein was at least 1.5 in each case.
`Cn1c(=O)cc(Nc2ccc(C(F)(F)F)cc2F)c2c(=O)n(C3CC3)c(=O)n(-c3cccc(NS(C)(=O)=O)c3)c21` [Example 1-301]: the IC50 fell in the range of 0.01 to 0.1 µM in experiment [1] and 0.1 to 1 µM in experiment [2]. Further, the fold induction at 0.1 µM in the experiment on p27 protein and in the experiment on p15 protein was at least 1.5 in each case.
Turning to `Cn1c(=O)cc(Nc2ccc(Br)cc2F)c2c(=O)n(C3CC3)c(=O)n(-c3cccc(S(=O)(=O)N4CCCCC4)c3)c21` [Example 1-317], the IC50 in experiment [1] was in the range of 0.01 to 0.1 µM; in experiment [2], 0.1 to 1 µM. The fold induction at 0.1 µM with p27 protein and in the experiment with p15 protein was at least 1.5 each time.
Take `Cn1c(=O)cc(Nc2ccc(Br)cc2F)c2c(=O)n(C3CC3)c(=O)n(-c3cccc(S(=O)(=O)N4CCCC4)c3)c21` [Example 1-318]: the IC50 in experiment [1] was under 0.01 µM; in experiment [2], 0.1 to 1 µM. Moreover, the fold induction at 0.1 µM with p27 protein and in the experiment with p15 protein was at least 1.5 throughout.
`CC(C)S(=O)(=O)Nc1cccc(-n2c(=O)n(C3CC3)c(=O)c3c(Nc4ccc(I)cc4F)cc(=O)n(C)c32)c1` [Example 1-319]: the IC50 in experiment [1] and in experiment [2] was under 0.01 µM throughout. Further, the fold induction at 0.1 µM in the experiment on p27 protein and with p15 protein was at least 1.5 in each case.
Regarding `C#Cc1ccc(Nc2cc(=O)n(C)c3c2c(=O)n(C2CC2)c(=O)n3-c2cccc(NS(=O)(=O)CCC)c2)c(F)c1` [Example 1-320], the results for the IC50 in experiment [1] and in experiment [2] were under 0.01 µM and 0.01 to 0.1 µM, respectively. In addition, the fold induction at 0.1 µM with p27 protein and in the experiment with p15 protein was at least 1.5 throughout.
Regarding `Cn1c(=O)cc(Nc2ccc(I)cc2Cl)c2c(=O)n(C3CC3)c(=O)n(-c3cccc(NS(C)(=O)=O)c3)c21` [Example 1-322], the IC50 is under 0.01 µM in experiment [1] and 0.01 to 0.1 µM in experiment [2]. In addition, the fold induction at 0.1 µM in the experiment with p27 protein and in the experiment on p15 protein was at least 1.5 each time.
Regarding `CNC(=O)Nc1cccc(-n2c(=O)n(C3CC3)c(=O)c3c(Nc4ccc(Br)cc4F)cc(=O)n(C)c32)c1` [Example 1-325], the IC50 was in the range of 0.01 to 0.1 µM in experiment [1] and 0.1 to 1 µM in experiment [2]. The fold induction at 0.1 µM in the experiment on p27 protein and in the experiment with p15 protein was at least 1.5 in each case.
As to `CONC(=O)Nc1cccc(-n2c(=O)n(C3CC3)c(=O)c3c(Nc4ccc(Br)cc4F)cc(=O)n(C)c32)c1` [Example 1-327], the IC50 was 0.01 to 0.1 µM in experiment [1] and 0.1 to 1 µM in experiment [2]. Further, the fold induction at 0.1 µM with p27 protein and in the experiment on p15 protein was at least 1.5 throughout.
Consider `Cn1c(=O)cc(Nc2ccc3sccc3c2)c2c(=O)n(C3CC3)c(=O)n(-c3ccccc3)c21` [Example 1-328], for which the IC50 in experiment [1] was in the range of 0.01 to 0.1 µM; in experiment [2] it was 0.1 to 1 µM. The fold induction at 0.1 µM in the experiment with p27 protein and in the experiment with p15 protein was at least 1.5 in each case.
`C#Cc1ccc(Nc2cc(=O)n(C)c3c2c(=O)n(C2CC2)c(=O)n3-c2cccc(NS(C)(=O)=O)c2)c(C)c1` [Example 1-336]: the figures for the IC50 in experiment [1] and in experiment [2] were under 0.01 µM and 0.01 to 0.1 µM, respectively. Further, the fold induction at 0.1 µM with p27 protein and with p15 protein was at least 1.5 in each case.
As for `C#Cc1ccc(Nc2cc(=O)n(C)c3c2c(=O)n(C2CC2)c(=O)n3-c2cccc(NS(C)(=O)=O)c2)c(Cl)c1` [Example 1-337], the figures for the IC50 in experiment [1] and in experiment [2] were under 0.01 µM and 0.01 to 0.1 µM, respectively. In addition, the fold induction at 0.1 µM with p27 protein and with p15 protein was at least 1.5 each time.
As for `Cn1c(=O)cc(Nc2ccc(CCF)cc2F)c2c(=O)n(C3CC3)c(=O)n(-c3cccc(NS(C)(=O)=O)c3)c21` [Example 1-338], the figures for the IC50 in experiment [1] and in experiment [2] were under 0.01 µM and 0.01 to 0.1 µM, respectively. For the same compound, the fold induction at 0.1 µM with p27 protein and with p15 protein was at least 1.5 in each case.
In the case of `Cc1cc(I)ccc1Nc1cc(=O)n(C)c2c1c(=O)n(C1CC1)c(=O)n2-c1cccc(NS(C)(=O)=O)c1` [Example 1-340], the IC50 in experiment [1] was under 0.01 µM; in experiment [2] it was 0.01 to 0.1 µM. The fold induction at 0.1 µM in the experiment on p27 protein and in the experiment on p15 protein was at least 1.5 each time.
Turning to `CSc1ccc(Nc2cc(=O)n(C)c3c2c(=O)n(C2CC2)c(=O)n3-c2cccc(NC(C)=O)c2)c(F)c1` [Example 1-341], the IC50 is under 0.01 µM in experiment [1] and 0.01 to 0.1 µM in experiment [2]. Also, the fold induction at 0.1 µM with p27 protein and in the experiment on p15 protein was at least 1.5 throughout.
With `CC(=O)Nc1cccc(-n2c(=O)n(C3CC3)c(=O)c3c(Nc4ccc(CCF)cc4F)cc(=O)n(C)c32)c1` [Example 1-342], the IC50 was under 0.01 µM in experiment [1] and 0.1 to 1 µM in experiment [2]. Also, the fold induction at 0.1 µM in the experiment with p27 protein and in the experiment on p15 protein was at least 1.5 each time.
Turning to `Cc1c(=O)n(C)c(Nc2ccc(Br)cc2F)c2c(=O)n(C3CC3)c(=O)n(-c3cccc(NS(C)(=O)=O)c3)c12` [Example 3-4], the IC50 in experiment [1] is under 0.01 µM; in experiment [2], 0.01 to 0.1 µM. Also, the fold induction at 0.1 µM in the experiment with p27 protein and in the experiment on p15 protein was at least 1.5 throughout.
In the case of `Cc1c(=O)n(C)c(Nc2ccc(I)cc2F)c2c(=O)n(C3CC3)c(=O)n(-c3cccc(NS(C)(=O)=O)c3)c12` [Example 3-7, N-{3-[3-cyclopropyl-5-(2-fluoro-4-iodophenylamino)-6,8-dimethyl-2,4,7-trioxo-3,4,6,7-tetrahydro-2H-pyrido[4,3-d]pyrimidin-1-yl]phenyl}methanesulfonamide], the IC50 in experiment [1] and in experiment [2] was under 0.01 µM in each case. The fold induction at 0.1 µM with p27 protein and with p15 protein was at least 1.5 throughout.
As to `CCS(=O)(=O)Nc1cccc(-n2c(=O)n(C3CC3)c(=O)c3c(Nc4ccc(I)cc4F)n(C)c(=O)c(C)c32)c1` [Example 4-2], the IC50 in experiment [1] and in experiment [2] was under 0.01 µM in each case. Moreover, the fold induction at 0.1 µM in the experiment on p27 protein and with p15 protein was at least 1.5 throughout.
`C#Cc1ccc(Nc2c3c(=O)n(C4CC4)c(=O)n(-c4cccc(NS(=O)(=O)CC)c4)c3c(C)c(=O)n2C)c(F)c1` [Example 4-6]: the figures for the IC50 in experiment [1] and in experiment [2] were under 0.01 µM and 0.01 to 0.1 µM, respectively. For the same compound, the fold induction at 0.1 µM in the experiment with p27 protein and in the experiment on p15 protein was at least 1.5 each time.
As for `CCc1ccc(Nc2c3c(=O)n(C4CC4)c(=O)n(-c4cccc(NC(C)=O)c4)c3c(C)c(=O)n2C)c(F)c1` [Example 4-9], the figures for the IC50 in experiment [1] and in experiment [2] were under 0.01 µM and 0.01 to 0.1 µM, respectively. In addition, the fold induction at 0.1 µM with p27 protein and with p15 protein was at least 1.5 throughout.
With `CCS(=O)(=O)c1cccc(-n2c(=O)n(C3CC3)c(=O)c3c(Nc4ccc(Br)cc4F)n(C)c(=O)c(C)c32)c1` [Example 4-10], the figures for the IC50 in experiment [1] and in experiment [2] were 0.01 to 0.1 µM and 0.1 to 1 µM, respectively. Moreover, the fold induction at 0.1 µM with p27 protein and in the experiment on p15 protein was at least 1.5 throughout.
Consider `C=Cc1ccc(Nc2c3c(=O)n(C4CC4)c(=O)n(-c4cccc(NC(C)=O)c4)c3c(C)c(=O)n2C)c(F)c1` [Example 4-11], for which the IC50 in experiment [1] is under 0.01 µM; in experiment [2], 0.01 to 0.1 µM. Besides, the fold induction at 0.1 µM in the experiment with p27 protein and in the experiment with p15 protein was at least 1.5 throughout.

Usually IC50 stands for the concentration that gives 50% inhibition. Lower therefore signals higher potency. The fold induction is the ratio of treated to control signal. A higher fold induction goes with a strong induction.

Values taken from US20180273531A1, “PYRIMIDINE COMPOUND AND MEDICAL USE THEREOF” (Japan Tobacco Inc., priority 2004, published 2018).
